According to a melting point compilation (Tetko et al.; mined from patent text by program, amines drawn as free bases though some values may be those of a salt):

Row | SMILES | melting point
1 | Brc1ccc(OCCCCCCN2CCN(c3nccs3)CC2)cc1 | 66 to 68 °C
2 | CC(C)OCCOc1c(-c2ccc(S(C)(=O)=O)cc2)cnn(-c2ccc(F)c(F)c2)c1=O | 105 to 107 °C
3 | CN(C)C(=O)CCCOC(=O)C(C)(OCc1ccc2ccccc2c1)C(F)(F)F (stereo unspecified) | 42 to 43 °C
4 | COc1ccc(C2CCCCC2)cc1-c1csc(NC(=O)N2CCN(C3CCOCC3)CC2)n1 | 226 °C
5 | COC(=O)c1cc(C=O)ccc1[N+](=O)[O-] | 76.7 °C
6 | CC(C)(C)OC(=O)N1CCC(C(=O)c2nc3ccccc3[nH]2)CC1 | 226 to 228 °C
7 | Cc1ccc(Cn2nc(-c3cc(C(C)(C)C)c(O)c(C(C)(C)C)c3)c3cccnc32)cc1 | 134 to 135 °C
8 | Cc1nc2c(ncn2COCCO)c(=S)[nH]1 | 190 to 193 °C
9 | C/C(=C(\C#N)C(=S)/N=C/N(C)C)N1CCCN(c2ccc(C#N)cc2)CC1 | 120 to 126 °C
10 | COP(=O)(OC)C(C)C(NC(=O)OCc1ccccc1)C(=O)N[C@@H](Cc1ccccc1)[C@H](O)C(=O)N1C[C@@H](Cl)C[C@H]1C(=O)NC(C)(C)C (stereo partly specified) | 93 to 100 °C
11 | CNc1cccc2c1nc(-c1c(F)cccc1F)n2Cc1c(F)cccc1F | 194 to 195 °C
12 | CSc1ccc(-n2c(-c3ccncc3)nc(SC)c(C#N)c2=O)cc1 | 227 to 229 °C
13 | CNc1c(F)cc2c(=O)c(C(=O)O)cn(-c3ccc(F)c(O)c3)c2c1Cl | > 280 °C
14 | O=C(O)CCCCc1cc2nc(Cl)ccc2n1S(=O)(=O)c1ccccc1 | 113 °C
15 | CC(=O)Nc1cc(OC(F)F)c(OC(F)F)cc1[N+](=O)[O-] | 65 to 67 °C
16 | CNC(=O)Nc1cc(C#N)ccn1 | 203 to 204 °C
17 | CCN1C(=O)CCCc2c1ccc(Nc1ncc(Cl)c(Nc3ccc(N4CCN(C)CC4)cc3OC)n1)c2OC | 186 to 187 °C
18 | COc1ccc(S(=O)(=O)n2cc(F)c(N)nc2=O)cc1 | 158 to 162 °C
19 | O[C@@H]1c2ccccc2CN2CCC[C@@H]12 (relative stereo) | 131 to 133 °C
20 | O=C(O)c1ccc(-c2nc(-c3cc(Cl)sc3Cl)cs2)cc1 | 266 to 267 °C
21 | Cc1ccc(C)c2c1C[C@@H](O)[C@@H]2Oc1cc(C(=O)N(C)C)cc2c1nc(C)n2C (relative stereo) | 134 °C
22 | CC1CC(c2cc3c(F)cccc3s2)CCN1 (stereo unspecified) | 63 to 65 °C
23 | CN1CC(C[N+]2([O-])CC(=O)NC2=O)CC2c3cccc4[nH]cc(c34)CC21 (stereo unspecified) | 163 to 165 °C
24 | O=C1N(Cc2ccccc2C(F)(F)F)c2ccccc2C12COc1cc3c(cc12)OCCO3 (stereo unspecified) | 137 to 138 °C

Row | SMILES | melting point
25 | Cc1cc(F)ccc1-c1nc(N[C@H]2CC[C@H](O)CC2)nc2c1ccc(=O)n2-c1ccccc1F | 148 to 151 °C
26 | CCc1cccc2c3c([nH]c12)C(CC)(CCOC)OCC3 (stereo unspecified) | 125 to 126 °C
27 | CCCCOc1cc2c(c3c1OC(C)(C)C3)C(c1ccccc1)=NC(C)(C)C2 | 99 to 101 °C
28 | Cc1nc2cc(Oc3ncccc3C(=O)NCc3ccc(C(C)(C)O)cc3)ccc2s1 | 124 to 126 °C
29 | O=[N+]([O-])c1cc(I)cnc1Cl | 77 to 79 °C
30 | C=CC[C@H](C(=O)NC)c1ccc(Cl)c(Cl)c1 | 104 to 105 °C
31 | CCCCCCCCCCCCCCCCCCOc1cc(OCCCP(=O)(OCC)OCC)cc(C(=O)O)c1 | 53 to 55 °C
32 | O=C1Nc2ccccc2C1(c1ccc(O)cc1)c1ccc(O)cc1 | 267 °C
33 | CCCc1ccc(CCCOc2c(C)cc(-c3nnn(C)n3)cc2C)o1 | 38 to 39 °C
34 | Cc1c(C)c2c(c(Cl)c1C=O)CC(C)(C)C2 | 108 °C
35 | CN(C(=O)c1ccc2nonc2c1)[C@H]1CC[C@H](N=[N+]=[N-])CC1 | 149 to 150 °C
36 | CCCCc1nc2ccn(Cc3cccc(C(=N)N)c3)c(=O)c2n1Cc1ccc2ccc(C(=N)N)cc2c1 | 190 to 191 °C
37 | O=C(Nc1nccs1)c1cn(CC2CCCC2)c2cc(Cl)ccc12 | 117 to 119 °C
38 | CC(C)COc1cc(-c2ccc(N)c(OCC(C)C)c2)ccc1N | 270 °C
39 | COc1ccc2cc3c(=O)c(C#N)c[nH]c3cc2c1 | > 265 °C
40 | Cc1ccc(C(=O)Oc2cc(O)ccn2)cc1 | 120 to 127 °C
41 | COc1ccc2cc(I)sc2c1 | 75 to 77 °C
42 | CCCc1nn(-c2ccc(C(F)(F)F)cn2)cc1CCCOc1cc(CCC(=O)O)n(C2CCCCC2)n1 | 164 to 165 °C
43 | COc1cc(COc2nn(-c3ccccc3)cc2/C=C/C(=O)O)ccc1OCc1nc(-c2ccccc2)oc1C | 188 to 189 °C
44 | CN(C(=O)c1cc2ccccc2[nH]1)C1N=C(c2ccccc2)c2ccccc2NC1=O (racemic) | 287 to 288 °C
45 | COc1cc(Nc2nccc(C(=O)c3ccccc3)n2)cc(OC)c1OC | 165 °C
46 | Clc1cnc2ccc(Cl)c(Cl)c2n1 | 118 to 119 °C
47 | CCc1ccc2oc(=O)[nH]c2c1 | 146 to 147 °C
48 | O=C(O)C1CCNC2CCCCC21 (stereo unspecified) | > 300 °C

Row | SMILES | melting point
49 | O=[N+]([O-])c1ccc(OCc2ccccc2)c(C(F)(F)F)c1 | 112 to 114 °C
50 | CSc1sc(-c2nnc(C)o2)c2c1C(=O)CC(C)(C)C2 | 186 to 188 °C
51 | CN(C(=O)c1cc(C(F)(F)F)cc(C(F)(F)F)c1)C(CC(=O)O)Cc1ccc2ccccc2c1 (stereo unspecified) | 128 to 130 °C
52 | CCCc1nc(N(C)c2ccccc2)n2ncc(C(O)c3ccccc3Cl)c2n1 (stereo unspecified) | 153 to 155 °C
53 | C=C(c1ccccc1N1CCCCC1)C(C(N)=O)c1ccc(C(=O)O)cc1 (stereo unspecified) | 158 to 160 °C
54 | CCCCC(OC(C)=O)c1cccc(COc2cc([N+](=O)[O-])cc3cccnc23)c1 (stereo unspecified) | 72 to 74 °C
55 | CS(=O)(=O)c1ccc(-c2[nH]c3ccc(Cl)cc3c2-c2ccccc2)cc1 | 281 to 283 °C
56 | O=C1c2ccc(S(=O)(=O)c3ccccc3)cc2C(=O)c2c1c(Oc1ccccc1)c1ccccc1c2Oc1ccccc1 | 260 to 270 °C
57 | CCc1ccc(-c2ccc3c(c2)C=C(C(=O)OC)CCS3(=O)=O)cc1 | 173 to 176 °C
58 | CNC(=O)[C@@H]1C[C@H](SCc2ccc(OC)cc2)CN1C | 82 to 84 °C
59 | O=P(O)(O)C(F)(F)c1ccc(CNCc2ccc(C(F)(F)P(=O)(O)O)cc2)cc1 | 106 to 108 °C
60 | CCc1nc(COc2ccc([N+](=O)[O-])cc2)cs1 | 79 to 80 °C
61 | NC(=O)Cn1c(-c2ccccn2)nc2cccnc21 | 275 to 278 °C
62 | CSC1C(=O)Nc2ccc(Oc3ccccc3)cc21 (stereo unspecified) | 124 to 128 °C
63 | COc1ccc(C(=O)Nc2ccccc2)cc1NCc1ccc(C(C)(C)C)cc1 | 195 to 197 °C
64 | CCOC(=O)/C=C/C=C/c1ccc(CCc2nc(-c3ccccc3)oc2C)cc1 | 82 to 83 °C
65 | O=C(Nc1cncc(Cl)n1)C1=C(O)c2ccccc2S(=O)(=O)N1 | 234 to 235 °C
66 | CN1CCC2(CC1)OC(=O)c1ccccc12 | 147 to 148 °C
67 | CCOc1cc(C(=O)O)cc(N)c1C(=O)c1ccccc1 | 230 °C
68 | Cc1nc(N)sc1S(=O)(=O)N1CCC(O)C1 (racemic) | 165 °C
69 | Cc1c(-c2ccccc2)oc(C(=O)O)cc1=O | 218 °C
70 | CC(=O)OCc1nc2nc(O)cnc2c(=O)[nH]1 | > 300 °C
71 | CS(=O)(=O)c1nnc(-c2ccco2)s1 | 120 °C
